Experimental data taken from patent US11833251B2, “Pharmaceutical methods and compositions” (THE UNIVERSITY OF SUSSEX, priority 2018, dated 2023).
≈ marks a conversion by molar mass, not a printed value.

Test: Saturation solubility test of propranolol in various solvents at 37° C.
Assay type: physicochemical

Mean concentration (mg/ml) ± SD (propranolol in Kolliphor EL, 37° C., n = 3): 1.32 ± 0.00 mg/mL
Mean concentration (mg/ml) ± SD (propranolol in Tween 20, 37° C., n = 3): 1.86 ± 0.00 mg/mL
Mean concentration (mg/ml) ± SD (propranolol in Tween 80, 37° C., n = 3): 1.89 ± 0.01 mg/mL
solubility thermodynamic (propranolol in Water, 37° C., n = 3, read-out: Mean concentration (mg/ml) ± SD): 29.03 ± 0.12 mg/mL (≈ 112 mM)
Inference (solubility of propranolol in Kolliphor EL): Slightly soluble
Inference (solubility of propranolol in Tween 20): Slightly soluble
Inference (solubility of propranolol in Tween 80): Slightly soluble
Inference (solubility of propranolol in Water): Sparingly soluble
Structure (SMILES): CC(C)NCC(O)COc1cccc2ccccc12 (centres unmarked) [Propranolol, propranolol]
